ChEMBL document CHEMBL1201862, “PubChem BioAssay data set” (2004)
Calls of active or inactive are those of the source.

Experiments:
Vero [1] = experiment: cells; assay type: functional, cell-based; conditions: Chlorocebus sabaeus
Vero [2] = experiment: cells; assay type: functional; conditions: Chlorocebus sabaeus
Vero [3] = experiment: mammalian cell viability reduction – secondary assay, cytotoxicity control for West Nile virus antiviral project, dose response (AID 1650); assay type: functional; conditions: Chlorocebus sabaeus
Jurkat = experiment: blockers of NF-kB activation in T cells – Jurkat, luciferase reporter, luminescence, B- and T-cell, dose response (AID 489004); assay type: functional, cell-based; conditions: Homo sapiens;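 also: NF-kB luciferase reporter Jurkat cells stimulated with PMA plus ionomycin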
[4] = HEK-293T viability loss, compound-treated – cell-based, uHTS hits, cytotoxicity control for B/T-cell NF-kB inhibitor project, dose response (AID 489019); assay type: functional;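 also: IC50 reflects cytotoxicity as loss of cell viability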
HT-1080 = experiment: HT1080 cell viability loss – fluorescence readout (AID 620); assay type: functional, cell-based; conditions: Homo sapiens
[5] = cytotoxicity toward HCT116 cells – cell-based, CellTiter-Glo luminescence, IC50, dose response (AID 1117332); assay type: functional; conditions: HCT-116
[6] = cytotoxicity toward HT-29 cells – cell-based, CellTiter-Glo luminescence, IC50, dose response (AID 1117330); assay type: functional
[7] = Reduced DLD-1 viability, concentration-response, CellTiter-Glo luminescence (AID 1117352); assay type: functional
[8] = SNU-C1 cell viability reduction, dose response, CellTiter-Glo luminescence (AID 1117323); assay type: functional, cell-based
[9] = cytotoxicity toward Colo320 cells – cell-based, CellTiter-Glo luminescence, IC50, dose response (AID 1117334); assay type: functional; conditions: COLO 320
[10] = RKO cell viability reduction, dose response, CellTiter-Glo luminescence (AID 1117322); assay type: functional
[11] = HCT116 cell viability decrease, GSK3B pretreatment – CellTiter-Glo, IC50, dose response (AID 1117339); assay type: functional; conditions: HCT-116
[12] = CellTiter-Glo luminescence survival assay, SW480 colon tumor line, concentration-response curve, half-maximal inhibitory concentration (AID 1117338); assay type: functional
[13] = molecular target: Mitogen-activated protein kinase 10 (Homo sapiens, UniProt P53779); experiment: Dose response biochemical screening assay for inhibitors of c-Jun N-Terminal Kinase 3 (JNK3). [Related pubchem assays: 746 ]
[14] = molecular target: T1, Ubiquitin-conjugating enzyme E2 N (Homo sapiens, UniProt P61088); assay type: functional;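 also: Dose-response confirmation in a TR-FRET assay detecting UBC13-driven polyubiquitin chain formation, inhibition measured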
T1 sequence (P61088 whole entry): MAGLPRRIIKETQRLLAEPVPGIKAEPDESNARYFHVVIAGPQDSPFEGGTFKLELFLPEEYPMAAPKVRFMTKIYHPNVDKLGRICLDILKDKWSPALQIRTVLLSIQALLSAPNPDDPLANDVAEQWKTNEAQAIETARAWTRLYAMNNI

Bcl-2-related protein A1 [15] = molecular target: T2, Bcl-2-related protein A1 (Mus musculus, UniProt Q07440); experiment: Bfl-1 binding inhibitors, SAR follow-up, biochemical, fluorescence polarization (AID 1070)
T2 sequence (Q07440 whole entry): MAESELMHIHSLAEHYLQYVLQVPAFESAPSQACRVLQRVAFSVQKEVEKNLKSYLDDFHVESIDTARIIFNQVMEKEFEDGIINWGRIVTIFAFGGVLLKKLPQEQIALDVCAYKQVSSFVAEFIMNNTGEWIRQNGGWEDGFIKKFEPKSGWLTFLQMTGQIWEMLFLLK

[16] = molecular target: Glyceraldehyde-3-phosphate dehydrogenase (Homo sapiens, UniProt P04406)
Bcl-2-related protein A1 [17] = molecular target: T2, Bcl-2-related protein A1; experiment: small-molecule antagonists of Bfl-1/BH3 interaction – biochemical, TR-FRET, mouse Bfl-1, confirmation (AID 621);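 also: TR-FRET binding of GST-Bfl-1 to FITC-labelled Bid peptide via terbium antibody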
[18] = Dd2 parasite growth inhibition in erythrocytes – SYBR Green, dry powder samples, set 9, dose response (AID 1159568); assay type: functional, cell-based

Chain of Glyceraldehyde-3-phosphate dehydrogenase (P04406 whole entry): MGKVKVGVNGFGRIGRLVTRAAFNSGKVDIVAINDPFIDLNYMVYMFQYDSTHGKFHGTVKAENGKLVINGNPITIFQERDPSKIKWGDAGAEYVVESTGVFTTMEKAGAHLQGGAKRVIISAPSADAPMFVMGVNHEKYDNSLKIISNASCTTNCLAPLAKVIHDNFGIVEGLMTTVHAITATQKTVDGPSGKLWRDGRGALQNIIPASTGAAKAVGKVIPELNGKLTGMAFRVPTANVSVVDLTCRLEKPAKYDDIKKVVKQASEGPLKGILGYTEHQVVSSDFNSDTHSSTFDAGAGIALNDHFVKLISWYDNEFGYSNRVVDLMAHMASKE
Chain of Mitogen-activated protein kinase 10 (P53779 whole entry): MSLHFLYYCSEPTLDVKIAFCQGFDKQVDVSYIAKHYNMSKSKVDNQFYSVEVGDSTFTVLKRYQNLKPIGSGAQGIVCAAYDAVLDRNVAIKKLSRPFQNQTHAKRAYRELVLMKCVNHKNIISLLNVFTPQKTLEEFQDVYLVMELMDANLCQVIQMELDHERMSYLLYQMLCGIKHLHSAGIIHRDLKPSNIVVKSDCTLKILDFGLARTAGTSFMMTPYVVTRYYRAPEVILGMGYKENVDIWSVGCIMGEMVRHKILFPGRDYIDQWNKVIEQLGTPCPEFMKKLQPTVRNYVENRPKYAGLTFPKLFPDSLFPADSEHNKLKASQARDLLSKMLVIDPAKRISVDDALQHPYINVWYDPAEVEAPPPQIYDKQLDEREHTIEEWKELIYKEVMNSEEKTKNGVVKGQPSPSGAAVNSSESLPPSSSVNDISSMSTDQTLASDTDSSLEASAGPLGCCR

## COc1ccc(CCNC(=O)/C=C/c2ccc3ccccc3n2)cc1OC
Vero [1]
  IC50: > 25 µM (active)
Vero [2]
  CC50: 16.4 µM (active)
Vero [3]
  CC50: 12 µM (active)

## N#Cc1c(NC(=O)CSc2nc[nH]n2)sc2c1CCCC2
Jurkat
  IC50: 0.64 µM (active)
[4]
  IC50: > 80 µM (inactive)
HT-1080
  EC50: > 50 µM (not active)

## O=C1c2ccccc2C(=O)C1C(=O)C(c1ccccc1)c1ccccc1 [DIPHENADIONE]
[5]
  IC50: 0.531 µM (active)
[6]
  IC50: 4.48 µM (active)
[7]
  IC50: 1.33 µM (active)
[8]
  IC50: 4.01 µM (active)
[9]
  IC50: 0.621 µM (active)
[10]
  IC50: 1.59 µM (active)
[11]
  IC50: 0.567 µM (active)
[12]
  IC50: 0.536 µM (active)

## CCOC(=O)CSc1nc2ccccc2c(=O)n1CCCCCC(=O)NCc1ccco1
[13]
  IC50: 43.3 µM (not active)
[14]
  IC50: > 20 µM (inactive)

## CC1CN(C2=C(Cl)C(=O)N(c3ccc(Cl)c(Cl)c3)C2=O)CCN1c1ccccc1 (stereo not given)
Bcl-2-related protein A1 [15]
  IC50: > 100 µM (not active)
[16]
  IC50: > 100 µM (not active)
Bcl-2-related protein A1 [17]
  IC50: 19.3 µM (active)

## C[C@@H]1CN([C@@H](C)CO)C(=O)c2cc(NC(=O)Nc3ccc4c(c3)OCO4)ccc2O[C@@H](C)CCCCO[C@H]1CN(C)S(=O)(=O)c1ccccc1
[18]
  AC50: 4.34 µM (active)
